Like-named read-outs stand apart in the source and are kept apart here. Where only a bound is given, the exact number is not on record here.

Series [1] relates to HIV-1 (IIIB). Put plainly: microbe, parasite or virus in culture. The class given is cell-based. The settings on record: Human immunodeficiency virus 1, IIIB, MT4, 120 h, read-out: MT4 EC50.
In series [2] the test system is pLAI reporter virus. Nature of the series: microbe, parasite or virus in culture. The format is cell-based, HIV. The settings on record: Human immunodeficiency virus 1, MT4, 72 h.
A short description of series [3]: in vitro. The settings on record: human, uninfected MT-4 cells.
Procedure: Compounds were serially diluted (1:3) in DMSO on 384-well polypropylene plates and further diluted 200-fold into complete RPMI media (10% FBS, 1% P/S) using the Biotek Micro Flow and Labcyte ECHO acoustic dispenser. […] Infected and uninfected MT-4 cells were further diluted in complete RPMI media and added to each plate using a Micro Flow dispenser. After 5 days incubation in a humidified and temperature controlled incubator (37° C.), Cell Titer Glo (Promega) was added to the assay plates and chemiluminescence read using an Envision plate-reader.
Assays were performed as above except uninfected MT-4 cells were added to each well containing test compound. In addition, 10 μM puromycin was added to the last column of each assay plate to assess a base level of cytotoxicity.
[4] abbreviates: HIV-1 (IIIB) in MT-4 cells, 5 days incubation, Cell Titer Glo.

On to `C[C@H]1CC[C@]2(CC(=O)N(Cc3ccc(C#N)cc3)O2)[C@H]2CN1C(=O)c1c(O)c(=O)c(C(=O)NCc3c(F)cc(F)cc3F)cn12` [Example 118, (3′S,5S,7′R)-2-(4-cyanobenzyl)-12′-hydroxy-3′-methyl-1′,3,11′-trioxo-N-(2,4,6-trifluorobenzyl)-1′,4′,5′,11′-tetrahydro-3′H,7′H-spiro[isoxazolidine-5,6′-[2,7]methanopyrido[1,2-a][1,4]diazonine]-10′-carboxamide], for which the half-maximal effective concentration (EC50) amounted to 2.6 nM in series [1] (setting [4]), 0.4 nM in series [2] (read-out: RLUC 50% HS EC50) and 0.4 nM in series [2] (read-out: RLUC CCM EC50). For the same molecule, in series [3], the CC50 at 5 days is ≥ 50000 nM.
`COc1ccc(CN2O[C@@]3(CC[C@H](C)N4C[C@H]3n3cc(C(=O)NCc5c(F)cc(F)cc5F)c(=O)c(O)c3C4=O)CC2=O)cc1` [Example 119, (3′S,5S,7′R)-12′-hydroxy-2-(4-methoxybenzyl)-3′-methyl-1′,3,11′-trioxo-N-(2,4,6-trifluorobenzyl)-1′,4′,5′,11′-tetrahydro-3′H,7′H-spiro[isoxazolidine-5,6′-[2,7]methanopyrido[1,2-a][1,4]diazonine]-10′-carboxamide]: the half-maximal effective concentration (EC50) in series [1] (setting [4]) was found to be 1.5 nM; in series [2] (read-out: RLUC 50% HS EC50), 2.3 nM; in series [2] (read-out: RLUC CCM EC50), 0.5 nM. Moreover, in series [3], the CC50 at 5 days was ≥ 50000 nM.
For `C[C@H]1CC[C@]2(CCC(=O)N2)[C@H]2CN1C(=O)c1c(O)c(=O)c(C(=O)NCc3c(F)cc(F)cc3F)cn12` [Example 121, (2S,3′S,7′R)-12′-hydroxy-3′-methyl-1′,5,11′-trioxo-N-(2,4,6-trifluorobenzyl)-1′,4′,5′,11′-tetrahydro-3′H,7′H-spiro[pyrrolidine-2,6′-[2,7]methanopyrido[1,2-a][1,4]diazonine]-10′-carboxamide] the same measures were 86.5 nM, 19.9 nM, 16.9 nM and ≥ 50000 nM.
On to `C[C@H]1CC[C@]2(CCCN2)[C@H]2CN1C(=O)c1c(O)c(=O)c(C(=O)NCc3c(F)cc(F)cc3F)cn12` [Example 122, (2R,3′S,7′R)-12′-hydroxy-3′-methyl-1′,11′-dioxo-N-(2,4,6-trifluorobenzyl)-1′,4′,5′,11′-tetrahydro-3′H,7′H-spiro[pyrrolidine-2,6′-[2,7]methanopyrido[1,2-a][1,4]diazonine]-10′-carboxamide], for which the 50% effective concentration (EC50) in series [1] is 6.4 nM; in series [2] (read-out: RLUC 50% HS EC50), 7.6 nM; in series [2] (read-out: RLUC CCM EC50), 0.9 nM. In series [3], this molecule yielded a CC50 at 5 days of 38000 nM.
`C[C@H]1CC[C@@]2(CC(O)CO2)[C@H]2CN1C(=O)c1c(O)c(=O)c(C(=O)NCc3c(F)cc(F)cc3F)cn12` (stereo partly drawn) [Example 123, (2R,3′S,7′R)-4,12′-dihydroxy-3′-methyl-1′,11′-dioxo-N-(2,4,6-trifluorobenzyl)-1′,4,4′,5,5′,11′-hexahydro-3H,3′H,7′H-spiro[furan-2,6′-[2,7]methanopyrido[1,2-a][1,4]diazonine]-10′-carboxamide]: the values for the 50% effective concentration (EC50) in series [1] (setting [4]), in series [2] (read-out: RLUC 50% HS EC50) and in series [2] (read-out: RLUC CCM EC50) were 8.4 nM, 1.4 nM and 2.1 nM, respectively. Besides, the 50% cytotoxic concentration (CC50) at 5 days in series [3] is ≥ 50000 nM.
Take `CC1C[C@@]2(CC[C@H](C)N3C[C@H]2n2cc(C(=O)NCc4c(F)cc(F)cc4F)c(=O)c(O)c2C3=O)OCO1` (stereo partly drawn) [Example 124, (3′S,4R,7′R)-12′-hydroxy-3′,6-dimethyl-1′,11′-dioxo-N-(2,4,6-trifluorobenzyl)-1′,4′,5′,11′-tetrahydro-3′H,7′H-spiro[[1,3]dioxane-4,6′-[2,7]methanopyrido[1,2-a][1,4]diazonine]-10′-carboxamide]: the EC50 was found to be 0.8 nM in series [1] (setting [4]), 0.4 nM in series [2] (read-out: RLUC 50% HS EC50) and 0.2 nM in series [2] (read-out: RLUC CCM EC50). The same molecule had a 50% cytotoxic concentration (CC50) at 5 days in series [3] of 29800 nM.
On to `C[C@H]1CCC2(OCCO2)[C@H]2CN1C(=O)c1c(O)c(=O)c(C(=O)NCc3c(F)cc(F)cc3F)cn12` [Example 125, (3′S,7′R)-12′-hydroxy-3′-methyl-1′,11′-dioxo-N-(2,4,6-trifluorobenzyl)-1′,4′,5′,11′-tetrahydro-3′H,7′H-spiro[[1,3]dioxolane-2,6′-[2,7]methanopyrido[1,2-a][1,4]diazonine]-10′-carboxamide], for which the half-maximal effective concentration (EC50) in series [1] (setting [4]) was found to be 0.7 nM; in series [2] (read-out: RLUC 50% HS EC50) it was 30.2 nM; in series [2] (read-out: RLUC CCM EC50) it was 0.2 nM. In addition, in series [3], the CC50 at 5 days is 24200 nM.
On the same counts, the results for `C[C@H]1CO[C@]2(CC[C@H](C)N3C[C@H]2n2cc(C(=O)NCc4c(F)cc(F)cc4F)c(=O)c(O)c2C3=O)O1` [Example 127, (2R,3′S,4S,7′R)-12′-hydroxy-3′,4-dimethyl-1′,11′-dioxo-N-(2,4,6-trifluorobenzyl)-1′,4′,5′,11′-tetrahydro-3′H,7′H-spiro[[1,3]dioxolane-2,6′-[2,7]methanopyrido[1,2-a][1,4]diazonine]-10′-carboxamide] are 1.2 nM, 13.3 nM, 0.1 nM and 49900 nM.
With `C[C@H]1CCC2(OCCCO2)[C@H]2CN1C(=O)c1c(O)c(=O)c(C(=O)NCc3c(F)cc(F)cc3F)cn12` [Example 128, (3′S,7′R)-12′-hydroxy-3′-methyl-1′,11′-dioxo-N-(2,4,6-trifluorobenzyl)-1′,4′,5′,11′-tetrahydro-3′H,7′H-spiro[[1,3]dioxane-2,6′-[2,7]methanopyrido[1,2-a][1,4]diazonine]-10′-carboxamide], the 50% effective concentration (EC50) in series [1] (setting [4]) was determined as 1.1 nM; in series [2] (read-out: RLUC 50% HS EC50), 18.4 nM; in series [2] (read-out: RLUC CCM EC50), 0.2 nM. In series [3], this molecule showed a cytotoxic concentration (CC50) at 5 days of 20500 nM.
On the same counts, the results for `C[C@H]1CCC2(OCCO2)[C@H]2CN1C(=O)c1c(O)c(=O)c(C(=O)NCc3ccc(F)cc3F)cn12` [Example 129, (3′S,7′R)—N-(2,4-difluorobenzyl)-12′-hydroxy-3′-methyl-1′,11′-dioxo-1′,4′,5′,11′-tetrahydro-3′H,7′H-spiro[[1,3]dioxolane-2,6′-[2,7]methanopyrido[1,2-a][1,4]diazonine]-10′-carboxamide] are 0.5 nM, 8 nM, 0.2 nM and 27400 nM.
Turning to `C[C@H]1CC[C@]2(COCO2)[C@H]2CN1C(=O)c1c(O)c(=O)c(C(=O)NCc3c(F)cc(F)cc3F)cn12` [Example 130, (3′S,4R,7′R)-12′-hydroxy-3′-methyl-1′,11′-dioxo-N-(2,4,6-trifluorobenzyl)-1′,4′,5′,11′-tetrahydro-3′H,7′H-spiro[[1,3]dioxolane-4,6′-[2,7]methanopyrido[1,2-a][1,4]diazonine]-10′-carboxamide], the EC50 in series [1] (setting [4]) worked out at 0.9 nM; in series [2] (read-out: RLUC 50% HS EC50), 363 nM; in series [2] (read-out: RLUC CCM EC50), 0.2 nM. The molecule further had a cytotoxic concentration (CC50) at 5 days in series [3] of 9840 nM.
Turning to `C[C@H]1CC[C@@]2(COCO2)[C@H]2CN1C(=O)c1c(O)c(=O)c(C(=O)NCc3c(F)cc(F)cc3F)cn12` [Example 131, (3′S,4S,7′R)-12′-hydroxy-3′-methyl-1′,11′-dioxo-N-(2,4,6-trifluorobenzyl)-1′,4′,5′,11′-tetrahydro-3′H,7′H-spiro[[1,3]dioxolane-4,6′-[2,7]methanopyrido[1,2-a][1,4]diazonine]-10′-carboxamide], the values for the half-maximal effective concentration (EC50) in series [1] (setting [4]), in series [2] (read-out: RLUC 50% HS EC50) and in series [2] (read-out: RLUC CCM EC50) were 1.9 nM, 8.1 nM and 0.5 nM, respectively. The same molecule came in with a CC50 at 5 days in series [3] of 28900 nM.
Consider `C[C@@H]1OC[C@]2(CC[C@H](C)N3C[C@H]2n2cc(C(=O)NCc4c(F)cc(F)cc4F)c(=O)c(O)c2C3=O)O1` [Example 133, (2R,3′S,4R,7′R)-12′-hydroxy-2,3′-dimethyl-1′,11′-dioxo-N-(2,4,6-trifluorobenzyl)-1′,4′,5′,11′-tetrahydro-3′H,7′H-spiro[[1,3]dioxolane-4,6′-[2,7]methanopyrido[1,2-a][1,4]diazonine]-10′-carboxamide], for which the values for the EC50 in series [1] (setting [4]), in series [2] (read-out: RLUC 50% HS EC50) and in series [2] (read-out: RLUC CCM EC50) were 1.7 nM, 102 nM and 0.5 nM, respectively. It took 20200 nM to reach half-maximal cytotoxicity in series [3] (CC50 at 5 days).
In the case of `C[C@H]1CC[C@]2(CO[C@H](Cc3ccccc3)O2)[C@H]2CN1C(=O)c1c(O)c(=O)c(C(=O)NCc3c(F)cc(F)cc3F)cn12` [Example 134, (2S,3′S,4R,7′R)-2-benzyl-12′-hydroxy-3′-methyl-1′,11′-dioxo-N-(2,4,6-trifluorobenzyl)-1′,4′,5′,11′-tetrahydro-3′H,7′H-spiro[[1,3]dioxolane-4,6′-[2,7]methanopyrido[1,2-a][1,4]diazonine]-10′-carboxamide], the EC50 in series [1] was 4.8 nM; in series [2] (read-out: RLUC 50% HS EC50) it was 6.3 nM; in series [2] (read-out: RLUC CCM EC50), 1.9 nM. Also, the CC50 at 5 days in series [3] was found to be 8500 nM.
On to `C[C@H]1CC[C@]2(COC(Cc3ccccc3)O2)[C@H]2CN1C(=O)c1c(O)c(=O)c(C(=O)NCc3c(F)cc(F)cc3F)cn12` (stereo partly drawn) [Example 135, (2R,3′S,4R,7′R)-2-benzyl-12′-hydroxy-3′-methyl-1′,11′-dioxo-N-(2,4,6-trifuorobenzyl)-1′,4′,5′,11′-tetrahydro-3′H, 7′H-spiro(f[,3]dioxolane-4,6′-[2,7]methanopyrido[1,2-a][1,4]diazonine]-10′-carboxamide], for which the values for the EC50 in series [1] (setting [4]), in series [2] (read-out: RLUC 50% HS EC50) and in series [2] (read-out: RLUC CCM EC50) were 7.1 nM, 581 nM and 2.6 nM, respectively. This molecule also displayed a CC50 at 5 days in series [3] of 6880 nM.
With `C[C@H]1CC[C@@]2(COC(Cc3ccccc3)O2)[C@H]2CN1C(=O)c1c(O)c(=O)c(C(=O)NCc3c(F)cc(F)cc3F)cn12` (stereo partly drawn) [Example 136, (3′S,4S,7′R)-2-benzyl-12′-hydroxy-3′-methyl-1′,11′-dioxo-N-(2,4,6-trifluorobenzyl)-1′,4′,5′,11′-tetrahydro-3′H,7′H-spiro[[1,3]dioxolane-4,6′-[2,7]methanopyrido[1,2-a][1,4]diazonine]-10′-carboxamide], the EC50 is 5.8 nM in series [1], 8.7 nM in series [2] (read-out: RLUC 50% HS EC50) and 1.7 nM in series [2] (read-out: RLUC CCM EC50). Besides, the CC50 at 5 days in series [3] worked out at 16600 nM.
